Several values for one entry are separate records, joined by “and”; a condition that tells them apart may be missing. Identical values can stand only once. Toxic doses and inconclusive results are not listed. How the source made its calls: active means survival T/C of 150% or more; inactive means T/C below 125% in these data.
Tested on: CD2F1 mice, ip Colon 26 adenocarcinoma, median survival T/C
Test: NCI In Vivo Anticancer Drug Screen. Data for tumor model Colon 26 Adenocarcinoma (intraperitoneal) in CD2F1 (CDF1) mice
Details: endpoint: median survival time, higher = longer survival
Method: The antitumor activity of compounds was measured in mice bearing transplantable tumors. Survival or tumor size were measured and the results are expressed as the measurement made in the treated group (T) divided by the measurement made in the vehicle treated control group (C). The tumor model used in this assay is Colon 26 Adenocarcinoma (intraperitoneal) in CD2F1 (CDF1) mice

Measured: T/C

CC1(CO)C(=O)CCC2(C)C1CCC1CC3CC12CCC3(O)CO (centres undefined)
inactive: dose: 37.5 mg/kg/injection, schedule: Q04DX002 (ip), vehicle: distilled water + Tween-80 97 % of control | dose: 75.0 mg/kg/injection, schedule: Q04DX002 (ip), vehicle: distilled water + Tween-80 101 % of control | dose: 150.0 mg/kg/injection, schedule: Q04DX002 (ip), vehicle: distilled water + Tween-80 94 % of control

O=Cc1ccc(C(Cl)(Cl)Cl)cc1
inactive: dose: 12.5 mg/kg/injection, schedule: Q04DX003 (ip), vehicle: saline with Tween-80 103 % of control and 107 % of control | dose: 25.0 mg/kg/injection, schedule: Q04DX003 (ip), vehicle: saline with Tween-80 106 % of control and 109 % of control | dose: 50.0 mg/kg/injection, schedule: Q04DX003 (ip), vehicle: saline with Tween-80 114 % of control and 98 % of control | dose: 100.0 mg/kg/injection, schedule: Q04DX003 (ip), vehicle: saline with Tween-80 96 % of control | dose: 200.0 mg/kg/injection, schedule: Q04DX003 (ip), vehicle: saline with Tween-80 98 % of control | dose: 400.0 mg/kg/injection, schedule: Q04DX003 (ip), vehicle: saline with Tween-80 103 % of control

COC(OC(CO)C(O)S(=O)(=O)O)C(O)S(=O)(=O)O (centres undefined)
inactive: dose: 12.5 mg/kg/injection, schedule: Q04DX003 (ip), vehicle: saline 97 % of control | dose: 25.0 mg/kg/injection, schedule: Q04DX003 (ip), vehicle: saline 102 % of control | dose: 50.0 mg/kg/injection, schedule: Q04DX003 (ip), vehicle: saline 102 % of control | dose: 100.0 mg/kg/injection, schedule: Q04DX003 (ip), vehicle: saline 108 % of control | dose: 200.0 mg/kg/injection, schedule: Q04DX003 (ip), vehicle: saline 109 % of control | dose: 400.0 mg/kg/injection, schedule: Q04DX003 (ip), vehicle: saline 100 % of control

CC(=O)Oc1ccccc1C(=O)O
inactive: dose: 72.0 mg/kg/injection, schedule: Q04DX002 (ip), vehicle: saline with Tween-80 89 % of control

Cc1[nH]c(=O)[nH]c(=O)c1N(CCF)CCCl
inactive: dose: 8.0 mg/kg/injection, schedule: Q04DX002 (ip), vehicle: Klucel (hydroxypropylcellulose) (HPC) 111 % of control and 112 % of control | dose: 16.0 mg/kg/injection, schedule: Q04DX002 (ip), vehicle: Klucel (hydroxypropylcellulose) (HPC) 114 % of control and 121 % of control | dose: 32.0 mg/kg/injection, schedule: Q04DX002 (ip), vehicle: Klucel (hydroxypropylcellulose) (HPC) 122 % of control

Nc1ncnc2nc[nH]c12
inactive: dose: 64.0 mg/kg/injection, schedule: Q04DX002 (ip), vehicle: Klucel (hydroxypropylcellulose) (HPC) 97 % of control | dose: 128.0 mg/kg/injection, schedule: Q04DX002 (ip), vehicle: Klucel (hydroxypropylcellulose) (HPC) 91 % of control | dose: 256.0 mg/kg/injection, schedule: Q04DX002 (ip), vehicle: Klucel (hydroxypropylcellulose) (HPC) 95 % of control | dose: 512.0 mg/kg/injection, schedule: Q04DX002 (ip), vehicle: Klucel (hydroxypropylcellulose) (HPC) 94 % of control

CC(=O)OCC(=O)[C@@]12OC(C)(C)O[C@@H]1C[C@H]1[C@@H]3CC(C=O)=C4C=C(OCCCl)CC[C@]4(C)[C@@]3(F)[C@@H](O)C[C@@]12C
inactive: dose: 0.39 mg/kg/injection, schedule: Q04DX002 (ip), vehicle: Klucel (hydroxypropylcellulose) (HPC) 94 % of control | dose: 0.78 mg/kg/injection, schedule: Q04DX002 (ip), vehicle: Klucel (hydroxypropylcellulose) (HPC) 89 % of control | dose: 1.56 mg/kg/injection, schedule: Q04DX002 (ip), vehicle: Klucel (hydroxypropylcellulose) (HPC) 93 % of control | dose: 3.13 mg/kg/injection, schedule: Q04DX002 (ip), vehicle: Klucel (hydroxypropylcellulose) (HPC) 95 % of control | dose: 6.25 mg/kg/injection, schedule: Q04DX002 (ip), vehicle: Klucel (hydroxypropylcellulose) (HPC) 91 % of control | dose: 12.5 mg/kg/injection, schedule: Q04DX002 (ip), vehicle: Klucel (hydroxypropylcellulose) (HPC) 88 % of control

Source: PubChem BioAssay AID210 (DTP/NCI, 2004)
